Data as given in PubChem BioAssay (NCI).
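Grown in 96-well plates, cells were treated for 48 hours with each compound at five concentrations. Insufficient inhibition: endpoint recorded as highest concentration tested. Abbreviation: GI50, concentration required for 50% inhibition of growth. TGI denotes the concentration required for complete inhibition of growth.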

How the values were obtained:
Assay in all cases: NCI tumour cell line growth inhibition, 48 h
786-0 renal = tested on: 786-0 renal
A498 renal = tested on: A498 renal
COLO 205 colon = tested on: COLO 205 colon
HCT-15 colon = tested on: HCT-15 colon
HOP-92 NSCLC = tested on: HOP-92 NSCLC
IGROV1 ovarian = tested on: IGROV1 ovarian
KM12 colon = tested on: KM12 colon
SN12C renal = tested on: SN12C renal
SW-620 colon = tested on: SW-620 colon
UACC-257 melanoma = tested on: UACC-257 melanoma

With CC#CC(=O)N1CCC[C@H]1c1nc(-c2ccc(C(=O)Nc3ccccn3)cc2)c2c(N)nccn12 the GI50 (786-0 renal) was > 100 µM, the TGI (786-0 renal) was > 100 µM and the GI50 (A498 renal) was 26.4 µM. For the same compound, the TGI (A498 renal) was > 81.9 µM, the GI50 (COLO 205 colon) was 85.4 µM and the TGI (COLO 205 colon) was > 100 µM. The GI50 (HCT-15 colon) was > 72.3 µM, the TGI (HCT-15 colon) was > 100 µM and the GI50 (HOP-92 NSCLC) was 25.1 µM. For the same compound, the TGI (HOP-92 NSCLC) was > 100 µM, the GI50 (IGROV1 ovarian) was 18 µM and the TGI (IGROV1 ovarian) was > 83.8 µM. The GI50 (KM12 colon) was > 72.2 µM, the TGI (KM12 colon) was > 100 µM and the GI50 (SN12C renal) was 47.6 µM. The TGI (SN12C renal) was > 100 µM, the GI50 (SW-620 colon) was > 100 µM and the TGI (SW-620 colon) was > 100 µM. For the same compound, the GI50 (UACC-257 melanoma) was 50.1 µM and the TGI (UACC-257 melanoma) was > 100 µM.
With NC(CSC(c1ccccc1)(c1ccccc1)c1ccc2ccccc2c1)C(=O)O (centres undefined) the GI50 (786-0 renal) was 0.0763 µM, the TGI (786-0 renal) was 1.19 µM and the GI50 (A498 renal) was 0.0529 µM. The TGI (A498 renal) was 3.79 µM, the GI50 (COLO 205 colon) was 0.0816 µM and the TGI (COLO 205 colon) was 0.875 µM. For the same compound, the GI50 (HCT-15 colon) was 0.175 µM, the TGI (HCT-15 colon) was 23.7 µM and the GI50 (HOP-92 NSCLC) was 0.215 µM. It also gave a TGI (HOP-92 NSCLC) of 23.2 µM, a GI50 (IGROV1 ovarian) of 0.124 µM and a TGI (IGROV1 ovarian) of 21.6 µM. For the same compound, the GI50 (KM12 colon) was 0.0804 µM, the TGI (KM12 colon) was 3.21 µM and the GI50 (SN12C renal) was 0.0874 µM. The TGI (SN12C renal) was 18.2 µM, the GI50 (SW-620 colon) was 0.0381 µM and the TGI (SW-620 colon) was 11.6 µM. For the same compound, the GI50 (UACC-257 melanoma) was 9.67 µM and the TGI (UACC-257 melanoma) was 34.3 µM.
In the case of O=c1nc2cc(-c3ccccc3)[nH]c2nn1-c1c(Cl)cc(Cl)cc1Cl, the TGI (786-0 renal) is reported as > 100 µM, the TGI (A498 renal) is reported as 89.7 µM and the TGI (COLO 205 colon) is reported as 32.9 µM. For the same compound, the TGI (HCT-15 colon) was > 100 µM, the TGI (HOP-92 NSCLC) was 64 µM and the TGI (IGROV1 ovarian) was > 100 µM. The TGI (KM12 colon) was 39.2 µM, the TGI (SN12C renal) was 83.7 µM and the TGI (SW-620 colon) was > 100 µM. The TGI (UACC-257 melanoma) was 79.6 µM.
In the case of COc1ccc(NC(=O)c2cc(OC)c(OC)c(OC)c2)cc1O, the GI50 (786-0 renal) is reported as 45.7 µM, the TGI (786-0 renal) is reported as > 100 µM and the GI50 (A498 renal) is reported as 2.73 µM. For the same compound, the TGI (A498 renal) was 32.9 µM, the GI50 (COLO 205 colon) was 4.45 µM and the TGI (COLO 205 colon) was > 100 µM. The GI50 (HCT-15 colon) was 1.46 µM, the TGI (HCT-15 colon) was > 100 µM and the GI50 (HOP-92 NSCLC) was 0.861 µM. For the same compound, the TGI (HOP-92 NSCLC) was > 100 µM, the GI50 (IGROV1 ovarian) was 8.86 µM and the TGI (IGROV1 ovarian) was > 100 µM. The GI50 (KM12 colon) was 0.792 µM, the TGI (KM12 colon) was > 100 µM and the GI50 (SN12C renal) was 7.99 µM. For the same compound, the TGI (SN12C renal) was > 100 µM, the GI50 (SW-620 colon) was 1.11 µM and the TGI (SW-620 colon) was > 100 µM.
In the case of C=C(C)C1/C=C(/C(C)C)CC[C@]2(C)O[C@@H]2CC[C@H](C)CC1=O (some centres undefined), the GI50 (786-0 renal) is reported as 32.4 µM, the TGI (786-0 renal) is reported as > 100 µM and the GI50 (A498 renal) is reported as 83.4 µM. The TGI (A498 renal) was > 100 µM, the GI50 (COLO 205 colon) was 54.5 µM and the TGI (COLO 205 colon) was > 100 µM. For the same compound, the GI50 (HCT-15 colon) was > 100 µM, the TGI (HCT-15 colon) was > 100 µM and the GI50 (HOP-92 NSCLC) was 99.5 µM. The TGI (HOP-92 NSCLC) was > 100 µM, the GI50 (IGROV1 ovarian) was 77.8 µM and the TGI (IGROV1 ovarian) was > 100 µM. The GI50 (KM12 colon) was 58.1 µM, the TGI (KM12 colon) was > 100 µM and the GI50 (SN12C renal) was > 100 µM. The TGI (SN12C renal) was > 100 µM.
With C#Cc1ccc(NC(=O)c2ccc(/C=C/C(=O)c3nccn3C)cc2)cc1 the GI50 (786-0 renal) was 0.454 µM, the TGI (786-0 renal) was 0.892 µM and the GI50 (A498 renal) was 0.512 µM. It also gave a TGI (A498 renal) of 1.39 µM, a GI50 (COLO 205 colon) of 0.592 µM and a TGI (COLO 205 colon) of 1.36 µM. For the same compound, the GI50 (HCT-15 colon) was 0.28 µM, the TGI (HCT-15 colon) was 1.6 µM and the GI50 (HOP-92 NSCLC) was 0.53 µM. For the same compound, the TGI (HOP-92 NSCLC) was 2.23 µM, the GI50 (IGROV1 ovarian) was 0.407 µM and the TGI (IGROV1 ovarian) was 0.884 µM. For the same compound, the GI50 (KM12 colon) was 0.421 µM, the TGI (KM12 colon) was 0.99 µM and the GI50 (SW-620 colon) was 0.382 µM. It also gave a TGI (SW-620 colon) of 1.01 µM, a GI50 (UACC-257 melanoma) of 0.66 µM and a TGI (UACC-257 melanoma) of 2.21 µM.
With COc1cccc(C2C(C(=O)Nc3cc(=O)n(C)c(=O)n3C)=C(C)NC(C)=C2C(=O)Nc2cc(=O)n(C)c(=O)n2C)c1O the TGI (786-0 renal) was > 100 µM, the TGI (A498 renal) was > 100 µM and the TGI (COLO 205 colon) was > 100 µM. For the same compound, the TGI (HOP-92 NSCLC) was > 100 µM, the TGI (IGROV1 ovarian) was > 100 µM and the TGI (KM12 colon) was > 100 µM. The TGI (SN12C renal) was > 100 µM, the TGI (SW-620 colon) was > 100 µM and the TGI (UACC-257 melanoma) was > 100 µM.
O=[N+]([O-])c1ccccc1C1N2CCCCC2[C@@H]2c3[nH]c4ccccc4c3CCN12 (some centres undefined) showed a TGI (786-0 renal) of 29.7 µM, a TGI (A498 renal) of 25.2 µM and a TGI (COLO 205 colon) of 25.8 µM. It also gave a TGI (HCT-15 colon) of 29.4 µM, a TGI (HOP-92 NSCLC) of 29.2 µM and a TGI (IGROV1 ovarian) of 40.9 µM. It also gave a TGI (SN12C renal) of 26.6 µM, a TGI (SW-620 colon) of 23.4 µM and a TGI (UACC-257 melanoma) of 26.7 µM.
For Cn1ccnc1C(=O)/C=C/c1ccc(C(=O)Nc2nc3ccccc3[nH]2)cc1, the GI50 (786-0 renal) was 4.44 µM, the TGI (786-0 renal) was > 25 µM and the GI50 (A498 renal) was 4.71 µM. For the same compound, the TGI (A498 renal) was > 25 µM, the GI50 (HCT-15 colon) was 0.864 µM and the TGI (HCT-15 colon) was > 25 µM. The GI50 (HOP-92 NSCLC) was 6.28 µM, the TGI (HOP-92 NSCLC) was > 25 µM and the GI50 (IGROV1 ovarian) was 5.67 µM. The TGI (IGROV1 ovarian) was > 25 µM, the GI50 (KM12 colon) was 1.12 µM and the TGI (KM12 colon) was > 25 µM. For the same compound, the GI50 (SN12C renal) was 9.93 µM, the TGI (SN12C renal) was > 25 µM and the GI50 (SW-620 colon) was 0.808 µM. For the same compound, the TGI (SW-620 colon) was > 25 µM, the GI50 (UACC-257 melanoma) was > 25 µM and the TGI (UACC-257 melanoma) was > 25 µM.
Compound COc1ccc(/C=C2\COc3ccc(-c4ccccc4)cc3C2=O)cc1O has a GI50 (786-0 renal) of 5.02 µM, a TGI (786-0 renal) of 15.7 µM and a GI50 (A498 renal) of 2.4 µM. The TGI (A498 renal) was 6.1 µM, the GI50 (COLO 205 colon) was 3.68 µM and the TGI (COLO 205 colon) was 21.9 µM. It also gave a GI50 (HCT-15 colon) of 1.69 µM, a TGI (HCT-15 colon) of 4.37 µM and a GI50 (HOP-92 NSCLC) of 2.55 µM. The TGI (HOP-92 NSCLC) was 18.9 µM, the GI50 (IGROV1 ovarian) was 4.37 µM and the TGI (IGROV1 ovarian) was 15.9 µM. It also gave a GI50 (KM12 colon) of 1.75 µM, a TGI (KM12 colon) of 4.09 µM and a GI50 (SN12C renal) of 3.78 µM. It also gave a TGI (SN12C renal) of 14.5 µM, a GI50 (SW-620 colon) of 1.82 µM and a TGI (SW-620 colon) of 3.72 µM.
In the case of O=[N+]([O-])c1ccc(Cl)c(C2SCc3nc4ccccc4n32)c1 (centres undefined), the TGI (786-0 renal) is reported as > 100 µM, the TGI (A498 renal) is reported as > 100 µM and the TGI (COLO 205 colon) is reported as > 100 µM. The TGI (HOP-92 NSCLC) was 45.3 µM, the TGI (IGROV1 ovarian) was > 100 µM and the TGI (KM12 colon) was > 100 µM. For the same compound, the TGI (SN12C renal) was > 100 µM, the TGI (SW-620 colon) was 88.3 µM and the TGI (UACC-257 melanoma) was 93 µM.
For COC(=O)C1=C(C(=O)OC)C2(C(=O)OC)OC1(OC)C(C1(C(=O)OC)C(C(=O)OC)=C1C(=O)OC)=C2C(=O)OC (centres undefined), the TGI (786-0 renal) was > 100 µM, the TGI (COLO 205 colon) was > 100 µM and the TGI (HCT-15 colon) was > 100 µM. The TGI (HOP-92 NSCLC) was > 100 µM, the TGI (IGROV1 ovarian) was > 100 µM and the TGI (KM12 colon) was > 100 µM. For the same compound, the TGI (SN12C renal) was > 100 µM, the TGI (SW-620 colon) was > 100 µM and the TGI (UACC-257 melanoma) was > 100 µM.
